Assay results as given in US6110962A, “11-aryl-benzo[B]naphtho[2,3-D]furans and 11-aryl-benzo[B]naphtho[2,3-D]thiophenes useful in the treatment of insulin resistance and hyperglycemia” (American Home Products Corporation, priority 1999, dated 2000).

System: rat hepatic microsomal PTPases
Conditions: PTPase activity, compound at 50 μM

| SMILES | % Change from Control [%] |
| --- | --- |
| O=P(O)(O)COc1ccc(-c2c3ccccc3cc3sc4ccccc4c23)cc1 [Example 163, [4-(Benzo[b]naphtho[2,3-d]thiophen-11-yl)-phenoxymethyl]-phosphonic acid] | -38.40 |
| COc1c(C)cc(-c2c3ccccc3c(C)c3sc4ccccc4c23)cc1C [Example 24, 11-(4-Methoxy-3,5-dimethyl-phenyl)-6-methyl-benzo[b]naphtho[2,3-d]thiophene] | 3.16 |
| Oc1c(Br)cc(-c2c3ccccc3c(Br)c3oc4ccccc4c23)c(O)c1Br [Example 211, 2,6-Dibromo-4-(6-bromo-benzo[b]naphtho[2,3-d]furan-11-yl)-3-hydroxy-phenol] | -36.82 |
| O=C(O)COc1c(I)cc(-c2c3ccccc3cc3sc4ccccc4c23)cc1I [Example 83, (4-Benzo[b]naphtho[2,3-d]thiophen-11-yl-2,6-diiodo-phenoxy)-acetic acid] | -57.89 |
| O=C(O)COc1cc(Br)c(-c2c3ccccc3c(Br)c3sc4ccccc4c23)cc1OCC(=O)O [Example 95] | -75.45 |
| O=C(O)[C@@H](CCN1C(=O)c2ccccc2C1=O)Oc1c(Br)cc(-c2c3ccccc3c(Br)c3sc4ccccc4c23)cc1Br [Example 147, (R)-2-[2,6-Dibromo-4-(6-bromo-benzo[b]naphtho[2,3-d]thiophen-11-yl)-phenoxy]-4-(1,3-dioxo-1,3-dihydro-isoindol-2-yl)-butyric acid] | -66.60 |
| O=P(O)(O)C(CCc1ccccc1)Oc1c(Br)cc(-c2c3ccccc3c(Br)c3sc4ccccc4c23)cc1Br (stereo not drawn) [Example 164] | -70.32 |
| BrC[C@@H](Cc1ccccc1)Oc1c(Br)cc(-c2c3ccccc3c(Br)c3sc4ccccc4c23)cc1Br [Example 174, (R)-6-Bromo-11-[3,5-dibromo-4-(1-bromomethyl-2-phenyl-ethoxy)-phenyl]-benzo[b]naphtho[2,3-d]thiophene] | 0.39 |
| Cc1cc(-c2c3ccccc3c(C)c3sc4ccccc4c23)cc(C)c1OCC(=O)O [Example 86, {2,6-Dimethyl-4-[6-methyl-(benzo[b]naphtho[2,3-d]thiophen-11-yl)]-phenoxy}-acetic acid] | -69.35 |
| O=C1NC(=O)C(Oc2c(Br)cc(-c3c4ccccc4c(Br)c4sc5ccccc5c34)cc2Br)S1 (stereo not drawn) [Example 175, 5-[2,6-Dibromo-4-(6-bromo-benzo[b]naphtho[2,3-d]thiophen-11-yl)-phenoxy]-thiazolidinedione-2.4-dione] | -69.20 |
| O=C(O)COc1ccc(-c2c3ccccc3cc3sc4cc(OCC(=O)O)ccc4c23)cc1 [Example 74, [11-(4-Carboxymethoxy-phenyl)-benzo[b]naphtho[2,3-d]thiophen-3-yloxy]-acetic acid] | -21.61 |
| N#Cc1c2ccccc2c(-c2cc(Br)c(OCC(=O)O)c(Br)c2)c2c1sc1ccccc12 [Example 88] | -67.03 |
| O=C(O)COc1ccc(-c2c3ccccc3cc3sc4ccccc4c23)cc1I [Example 85, (4-Benzo[b]naphtho[2,3-d]thiophen-11-yl-2-iodo-phenoxy)-acetic acid] | -71.67 |
| O=C(O)COc1cccc(-c2c3ccccc3c(Br)c3sc4ccccc4c23)c1 [Example 90, [3-(6-Bromo-benzo[b]naphtho[2,3-d]thiophen-11-yl)-phenoxyl]-acetic acid] | -79.04 |
| COc1ccc(-c2c3ccccc3cc3sc4ccccc4c23)cc1 [Example 23, 11-(4-Methoxy-phenyl)-benzo[b]naphtho[2,3-d]thiophene] | -8.92 |
| O=C(O)COc1ccc2c(c1)sc1cc3ccccc3c(-c3ccc(O[C@H](Cc4ccccc4)C(=O)O)cc3)c12 [Example 119] | -75.29 |
| O=C(O)COc1cc(-c2c3ccccc3c(Br)c3sc4ccccc4c23)cc(Br)c1OCC(=O)O [Example 94] | -95.80 |
| O=C(O)COc1c(Br)cc(-c2c3c(c(Br)c4ccccc24)S(=O)(=O)c2ccccc2-3)cc1Br [Example 186] | -74.87 |
| O=C(NO)[C@@H](Cc1ccccc1)Oc1c(Br)cc(-c2c3ccccc3c(Br)c3sc4ccccc4c23)cc1Br [Example 167] | -16.99 |
| O=C(O)COc1ccc(-c2c3ccccc3cc3sc4ccccc4c23)cc1 [Example 84, [4-Benzo[b]naphtho[2,3-d]thiophen-11-yl-phenoxy]-acetic acid] | -73.91 |
| O=C(O)COc1ccc(-c2c3ccc(OCC(=O)O)cc3cc3sc4ccccc4c23)cc1 [Example 76, [11-(4-Carboxymethoxy-phenyl)-benzo[b]naphtho[2.3-d]thiophen-8-yloxy]-acetic acid] | -18.89 |

| SMILES | % Change from Control [%] |
| --- | --- |
| O=C(O)COc1c(Br)cc(-c2c3ccccc3c(Br)c3c2c2ccccc2[s+]3[O-])cc1Br (stereo not drawn) [Example 187] | -57.64 |
| CCOP(=O)(OCC)C(CCc1ccccc1)Oc1c(Br)cc(-c2c3ccccc3c(Br)c3sc4ccccc4c23)cc1Br (stereo not drawn) [Example 161, {1-2,6-Dibromo-4-(6-bromo-benzo[b]naphtho[2,3-d]thiophen-11-yl)-phenoxyl-3-phenyl-propyl}-phosphonic acid, diethyl ester] | -8.03 |
| O=C(O)COc1ccc(-c2c3ccccc3c(Br)c3sc4ccccc4c23)cc1OCC(=O)O [Example 93] | -58.35 |
| CS(=O)(=O)Oc1ccc(-c2c3ccccc3c(I)c3sc4ccccc4c23)cc1 [Example 47, Methanesulfonic acid 4-(6-Iodo-benzo[b]naphtho[2,3-d]thiophen-11-yl)-phenylester] | -3.50 |
| CC(=O)Oc1ccc(-c2c3ccccc3cc3sc4ccccc4c23)cc1 [Example 34, 4-(Benzo[b]naphtho[2,3-d]thiophen-11-yl-phenol)acetate ester] | -3.40 |
| COc1ccc(C(=O)c2c(Cc3ccccc3)sc3ccccc23)cc1 [Example 7, (2-Benzyl-benzo[b]thiophen-3-yl)-(4-methoxy-phenyl)-methanone] | 1.03 |
| O=C(O)COc1c(Br)cc(-c2c3ccccc3c(Br)c3oc4ccccc4c23)c(O)c1Br [Example 217] | -80.42 |
| O=C(O)COc1c2ccccc2c(-c2cc(Br)c(O[C@H](Cc3ccccc3)C(=O)O)c(Br)c2)c2c1sc1ccccc12 [Example 185] | -98.45 |
| Oc1c(Br)cc(-c2c3ccccc3c(C(F)(F)F)c3sc4ccccc4c23)cc1Br [Example 61, 2,6-Dibromo-4-(6-trifluoromethyl-benzo[b]naphtho[2,3-d]thiophen-11-yl)-phenol] | -54.82 |
| Cc1cc(-c2c3ccccc3c(C)c3sc4ccccc4c23)cc(C)c1O [Example 25, 2,6-Dimethyl-4-(6-methyl-benzo[b]naphtho[2,3-d]thiophen-11-yl)-phenol] | -38.31 |
| O=C(O)COc1ccc2c(c1)sc1cc3ccccc3c(-c3ccc(O[C@H](CCN4C(=O)c5ccccc5C4=O)C(=O)O)cc3)c12 [Example 149] | -59.82 |
| O=C(O)COc1c(F)ccc(-c2c3ccccc3c(Br)c3sc4ccccc4c23)c1F [Example 201, [3-(6-Bromo-benzo[b]naphtho[2,3-d]thiophen-11-yl)-2.6-difluoro-phenoxy]-acetic acid] | -75.75 |
| N#Cc1cc(-c2c3ccccc3cc3sc4ccccc4c23)cc(C#N)c1O [Example 32, 5-Benzo[b]naphtho[2,3-d]thiophen-11-yl-2-hydroxy-isophthalonitrile] | -58.12 |
| COc1c(C#N)cc(-c2c3ccccc3cc3sc4ccccc4c23)cc1C#N [Example 30, 5-Benzo[b]naphtho[2,3-d]thiophen-11-yl-2-methoxy-isophthalonitrile] | 1.00 |
| COc1c(Br)cc(-c2c3ccccc3c(Br)c3sc4ccccc4c23)cc1Br [Example 22] | -16.83 |
| Oc1ccc(-c2c3ccccc3cc3sc4ccccc4c23)cc1 [Example 14, 4-Benzo[b]naphtho[2,3-d]thiophen-11-yl-phenol] | -34.19 |
| Oc1ccc(-c2c3ccccc3cc3sc4ccccc4c23)cc1I [Example 27, 4-(Benzo[b]naphtho[2,3-d]thiophen-11-yl)-2-iodo-phenol] | -35.78 |
| Oc1ccc(-c2c3ccc(O)cc3cc3sc4ccccc4c23)cc1 [Example 20, 11-(4-Hydroxy-phenyl)-benzo[b]naphtho[2,3-d]thiophen-8-ol] | -26.86 |
| Oc1ccc(-c2c3ccccc3cc3sc4cc(O)ccc4c23)cc1 [Example 15, 11-(4-Hydroxy-phenyl)-benzo[b]naphtho[2,3-d]thiophen-3-ol] | -43.68 |
| Oc1c(I)cc(-c2c3ccccc3cc3sc4ccccc4c23)cc1I [Example 26, 4-(Benzo[b]naphtho[2,3-d]thiophen-11-yl)-2,6-diiodo-phenol] | -8.68 |
| O=C(O)COc1ccc(-c2c3ccccc3cc3oc4ccccc4c23)cc1 [Example 213, 4-(Benzo[b]naphtho[2,3-d]furan-11-yl-phenoxy)-acetic acid] | -54.40 |
